Test results taken from EPA's ToxValDB 9.5 (doi:10.2903/j.efsa.2010.1904).
Converted amounts (≈) assume the structure as drawn.

Assays:
Anas platyrhynchos = settings: oral, mortality
Apis mellifera = settings: acute; duration: 48 hours; oral; unspecified; mortality
Canidae = settings: chronic; duration: 52 weeks; oral; Dog Other
Daphnia magna = settings: chronic/long-term; duration: 21 days
Ictalurus punctatus = settings: acute; duration: 96 hours; mortality
Oncorhynchus mykiss = settings: chronic/long-term; duration: 21 days
Oryctolagus sp. = settings: reproduction developmental; reproduction

## N#Cc1sc2c(=O)c3ccccc3c(=O)c=2sc1C#N [Dithianon]
Anas platyrhynchos; acute, unspecified
  LD50: > 2000 mg/kg-day
Anas platyrhynchos; short-term, feed
  LC50: > 790 mg/kg-day
Apis mellifera
  LD50: > 25.4 µg/piece
Canidae
  NOAEL: 1.6 mg/kg-day
Colinus virginianus; acute, oral, diet, mortality
  LC50: > 1200 mg/kg-day
Colinus virginianus; acute, oral, mortality
  LD50: 309 mg/kg-day
Colinus virginianus; reproduction developmental, reproduction
  NOEC: 22.8 mg/kg-day
Daphnia magna
  NOEC: 0.0595 mg/L
Ictalurus punctatus
  LC50: 0.0143 µg/mL (≈ 0.0483 µM)
Oncorhynchus mykiss
  NOEC: 0.00046 mg/L
Oryctolagus sp.
  NOAEL: 25 mg/kg-day
Rattus norvegicus; acute, oral, mortality
  LD50: < 500 mg/kg-day
Rattus norvegicus; chronic, histopathology: neoplastic
  NOAEL: 1 mg/kg-day
Rattus norvegicus; short-term, duration: 7 days, oral, histopathology: nonneoplastic
  NOAEL: 12 mg/kg-day
Rattus norvegicus; short-term, duration: 28 days, oral, histopathology: nonneoplastic
  NOAEL: 12 mg/kg-day
Tagia sp.; acute, duration: 14 days, mortality
  LC50: 578 mg/kg
Tagia sp.; chronic/long-term, duration: 56 days, reproduction
  NOEC: 48 mg/kg
